10 compounds from patent US20260374773A1, “MULTI-CYCLIC IRAK AND FLT3 INHIBITING COMPOUNDS AND USES THEREOF” (CHILDREN'S HOSPITAL MEDICAL CENTER, priority 2022, published 2026) can be followed below.

For one test, the target named is IRAK1 (Homo sapiens, UniProt P51617). The experiment in a line: RBC HotSpot kinase inhibition assay, IRAK1. Type of test: biochemical. As to conditions: isolated kinase, 33P-ATP, 2 h.
Excerpt: (§1) This assay uses the isolated kinase enzyme. This assay is very useful for determining competition of the inhibitor for ATP and/or substrates and for measuring the kinetics of enzyme inhibition. […] Unlike kinase binding assays that measure competition for ATP, the HotSpot Kinase Assay is a functional assay that measures catalytic activity; as such it measures relative functional potency regardless of the mechanism of enzyme inhibition. This assay uses the form of the various enzymes that are easiest to express, which may not necessarily be the form of the enzyme that exist in the cell. (Sometimes the carboxy terminus has been truncated to aid in expression, or, if it is a receptor kinase, the enzyme itself is isolated from the other parts of the receptor that are involved in regulating kinase activity.)
(§2) The reagent used was as follows: Base Reaction buffer; 20 mM Hepes (pH 7.5), 10 mM MgCl2, 1 mM EGTA, 0.01% Brij35, 0.02 mg/ml BSA, 0.1 mM Na3VO4, 2 mM DTT, 1% DMSO. Required cofactors were added individually to each kinase reaction.
(§3) The reaction procedure was as follows: • 1) Substrates were prepared in freshly prepared Reaction Buffer. • 2) Any required cofactors were delivered to the substrate solution above. • 3) Kinase was delivered into the substrate solution and gently mixed. • 4) Compounds were delivered in 100% DMSO into the kinase reaction mixture by Acoustic technology (Echo550; nanoliter range), followed by incubation for 20 min at room temp. • 5) ^33P-ATP was delivered into the reaction mixture to initiate the reaction. • 6) The mixture was incubated for 2 hours at room temperature. • 7) Kinase activity was detected by P81 filter-binding method.
as §1, with “Although not wishing to be limited by theory, it is believed that sometimes” for “(Sometimes”, “activity.” for “activity.)”
(§4) The reagent used was as follows: Base Reaction buffer; 20 mM Hepes (pH 7.5), 10 mM MgCl2, 1 mM EGTA, 0.01% Brij35, 0.02 mg/ml BSA, 0.1 mM Na3 VO4, 2 mM DTT, 1% DMSO.
(§5) Required cofactors were added individually to each kinase reaction.
as §3, with “33P-ATP” for “^33P-ATP”

A further test addresses T1, FLT3 (Homo sapiens, UniProt P36888).
T1 sequence (P36888 27-993): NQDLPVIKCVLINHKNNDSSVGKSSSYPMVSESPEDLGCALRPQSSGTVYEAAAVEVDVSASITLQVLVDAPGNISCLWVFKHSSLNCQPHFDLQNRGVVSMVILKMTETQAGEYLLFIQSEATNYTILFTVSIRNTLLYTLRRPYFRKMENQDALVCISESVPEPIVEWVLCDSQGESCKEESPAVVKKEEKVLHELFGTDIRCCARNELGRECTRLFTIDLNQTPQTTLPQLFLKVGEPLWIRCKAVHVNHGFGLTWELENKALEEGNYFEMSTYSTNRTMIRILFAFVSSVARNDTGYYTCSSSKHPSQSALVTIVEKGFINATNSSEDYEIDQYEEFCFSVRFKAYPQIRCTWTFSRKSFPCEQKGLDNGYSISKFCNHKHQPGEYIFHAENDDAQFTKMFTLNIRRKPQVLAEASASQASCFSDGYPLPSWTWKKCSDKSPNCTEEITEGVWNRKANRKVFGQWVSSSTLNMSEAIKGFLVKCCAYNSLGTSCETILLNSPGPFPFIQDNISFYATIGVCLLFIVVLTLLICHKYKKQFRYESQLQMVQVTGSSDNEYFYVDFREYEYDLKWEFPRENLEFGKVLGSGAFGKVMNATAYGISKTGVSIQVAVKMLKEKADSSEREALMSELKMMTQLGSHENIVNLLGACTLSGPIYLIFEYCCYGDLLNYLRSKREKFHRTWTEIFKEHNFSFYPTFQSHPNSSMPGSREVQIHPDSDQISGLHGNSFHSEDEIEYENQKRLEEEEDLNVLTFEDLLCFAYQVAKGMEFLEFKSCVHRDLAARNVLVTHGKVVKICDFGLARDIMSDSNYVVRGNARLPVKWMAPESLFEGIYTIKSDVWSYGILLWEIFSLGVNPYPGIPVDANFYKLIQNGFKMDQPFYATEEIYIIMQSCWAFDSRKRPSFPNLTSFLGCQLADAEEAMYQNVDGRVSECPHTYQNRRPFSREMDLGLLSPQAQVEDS
The experiment in a line: RBC HotSpot kinase inhibition assay, FLT3. Type of test: biochemical. As to conditions: isolated kinase, 33P-ATP, 2 h.
Excerpt: as §1, §2, §3
as §1, with “Although not wishing to be limited by theory, it is believed that sometimes” for “(Sometimes”, “activity.” for “activity.)”
as §4, §5
as §3, with “33P-ATP” for “^33P-ATP”

A further test addresses T2, IRAK4 (Homo sapiens, UniProt Q9NWZ3).
T2 sequence (Q9NWZ3 1-460): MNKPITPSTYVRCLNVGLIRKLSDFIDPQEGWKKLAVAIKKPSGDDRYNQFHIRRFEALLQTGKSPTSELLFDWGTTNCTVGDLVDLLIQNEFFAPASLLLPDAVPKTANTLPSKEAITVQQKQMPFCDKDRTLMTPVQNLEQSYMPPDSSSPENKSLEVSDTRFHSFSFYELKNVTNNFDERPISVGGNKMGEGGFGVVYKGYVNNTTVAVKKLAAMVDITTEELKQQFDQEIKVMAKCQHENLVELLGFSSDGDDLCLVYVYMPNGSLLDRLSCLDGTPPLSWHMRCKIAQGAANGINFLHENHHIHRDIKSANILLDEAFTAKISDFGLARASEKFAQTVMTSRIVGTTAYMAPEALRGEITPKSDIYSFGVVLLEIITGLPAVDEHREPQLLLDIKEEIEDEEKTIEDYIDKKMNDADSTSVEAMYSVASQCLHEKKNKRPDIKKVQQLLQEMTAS
The experiment in a line: RBC HotSpot kinase inhibition assay, IRAK4. As to conditions: isolated kinase, 33P-ATP, 2 h. Type of test: biochemical.
Excerpt: as §1, §2, §3
as §1, with “Although not wishing to be limited by theory, it is believed that sometimes” for “(Sometimes”, “activity.” for “activity.)”
as §4, §5
as §3, with “33P-ATP” for “^33P-ATP”

For the next test, the system named is MOLM14 D835Y cells. The experiment in a line: MOLM14 D835Y cell viability (Cell Titer Glo). To be noted: Homo sapiens. Type of test: cell-based. The protocol:
Both cell lines have activated FLT3 receptors, each of which carry additional resistance mutations in the kinase domain (D835Y and F691L, respectively).
(§6) MOLM14 D835Y and MOLM14 F691L cells were grown in RPMI-1640 media supplemented with 20% fetal bovine serum (FBS). For viability/cytotoxicity assessments, cells were seeded into 1536-well white polystyrene tissue culture-treated Greiner plates using a Multidrop Combi dispenser (ThermoFisher), in final volume 5 μL of growth media per well, at a density of 1000 cells per well. After cell addition, 23 nL of test compound were transferred into individual wells (22 doses tested for each test compound, with a 1:2 dilution series starting at 10 μM) via a 1536 pin-tool. Bortezomib (final concentration 2.3 μM) was used as a positive control for cell cytotoxicity. Plates were incubated for 48 hours at standard incubator conditions covered by a stainless steel gasketed lid to prevent evaporation. 48 hours post compound addition, 3 μL of Cell Titer Glo (Promega) were added to each well and plates were incubated at room temperature for 15 minutes with the stainless-steel lid in place. Luminescence readings were taken using a Viewlux imager (PerkinElmer) with a 2 second exposure time per plate.
This cell line has activated FLT3 receptors, which carries an additional resistance mutation in the kinase domain at D835Y.
as §6, with “D835Y” for “D835Y and MOLM14 F691L”, “mL” for “μL”, “mM)” for “μM)”
For orientation: ATP-based viability assays read luminescence as a measure of living cells.

One may read the IC50 as the concentration that gives 50% inhibition. Read a low IC50 as greater potency in that assay.

IRAK1, sequence (P51617 whole entry, the tested form may be a part): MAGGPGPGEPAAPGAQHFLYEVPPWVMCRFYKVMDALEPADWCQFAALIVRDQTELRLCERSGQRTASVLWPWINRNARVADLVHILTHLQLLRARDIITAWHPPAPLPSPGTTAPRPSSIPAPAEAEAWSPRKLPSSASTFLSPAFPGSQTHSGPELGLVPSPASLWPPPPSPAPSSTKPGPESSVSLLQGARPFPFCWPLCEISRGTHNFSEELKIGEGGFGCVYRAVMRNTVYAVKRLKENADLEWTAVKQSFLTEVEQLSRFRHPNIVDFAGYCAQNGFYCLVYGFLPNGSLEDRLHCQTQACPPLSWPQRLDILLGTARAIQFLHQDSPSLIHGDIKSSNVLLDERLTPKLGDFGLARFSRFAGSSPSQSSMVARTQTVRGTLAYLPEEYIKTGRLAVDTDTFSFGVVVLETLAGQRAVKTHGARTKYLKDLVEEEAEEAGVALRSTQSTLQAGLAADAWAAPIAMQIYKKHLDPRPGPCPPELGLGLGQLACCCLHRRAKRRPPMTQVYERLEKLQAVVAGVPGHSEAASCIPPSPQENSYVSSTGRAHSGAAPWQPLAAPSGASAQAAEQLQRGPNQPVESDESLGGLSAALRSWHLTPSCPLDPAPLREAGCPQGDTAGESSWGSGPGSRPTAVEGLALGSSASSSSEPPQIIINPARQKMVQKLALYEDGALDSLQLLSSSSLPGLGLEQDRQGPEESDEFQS

As for `F[C@H]1CNC[C@@H]1Nc1cccc(-c2cnn3cc(C4CC4)cnc23)n1` [Compound 15, 6-(6-cyclopropylpyrazolo[1,5-a]pyrimidin-3-yl)-N-((3S,4S)-4-fluoropyrrolidin-3-yl)pyridin-2-amine], the 50% inhibitory concentration (IC50) against IRAK1 (Table 11) turned out to be 1290 nM; at FLT3 (Table 11), 15 nM; against IRAK4 (Table 11) it was 267 nM.
`COc1cn2ncc(-c3cncc(N[C@H]4CNC[C@@H]4F)n3)c2nc1C1CC1` [Compound 10a, 6-(5-cyclopropyl-6-methoxypyrazolo[1,5-a]pyrimidin-3-yl)-N-((3S,4S)-4-fluoropyrrolidin-3-yl)pyrazin-2-amine]: the 50% inhibitory concentration (IC50) was 6 nM against IRAK1 (Table 17); under 0.5 nM at FLT3 (Table 17); 0.7 nM at IRAK4 (Table 17); 81 nM in the test with MOLM14 D835Y cells (MOLM-14, Table 22, 48 h).
For `COc1cn2ncc(-c3ccnc(N[C@H]4CNC[C@@H]4F)n3)c2nc1C(C)(C)O` [Compound 1a, 2-(3-(2-(((3S,4S)-4-fluoropyrrolidin-3-yl)amino)pyrimidin-4-yl)-6-methoxypyrazolo[1,5-a]pyrimidin-5-yl)propan-2-ol] the same measures were 162 nM, 2 nM, 9 nM and 257 nM.
With `CC(C)Oc1cnc2c(-c3cccc(N[C@H]4CNC[C@@H]4F)n3)cnn2c1` [Compound 17, N-((3S,4S)-4-fluoropyrrolidin-3-yl)-6-(6-isopropoxypyrazolo[1,5-a]pyrimidin-3-yl)pyridin-2-amine], the IC50 was found to be 3510 nM on IRAK1 (Table 11), 19 nM at FLT3 (Table 11) and 295 nM at IRAK4 (Table 11).
As for `F[C@H]1CNC[C@@H]1Nc1cccc(-c2cnn3cc(Cl)cnc23)n1` [Compound 14, 6-(6-chloropyrazolo[1,5-a]pyrimidin-3-yl)-N-((3S,4S)-4-fluoropyrrolidin-3-yl)pyridin-2-amine], the IC50 at IRAK1 (Table 11) amounted to 6220 nM; against FLT3 (Table 11), 32 nM; against IRAK4 (Table 11), 491 nM.
In the same order, the values of `COc1cnc2c(-c3cccc(N[C@H]4CNC[C@@H]4F)n3)cnn2c1` [Compound 18, N-((3S,4S)-4-fluoropyrrolidin-3-yl)-6-(6-methoxypyrazolo[1,5-a]pyrimidin-3-yl)pyridin-2-amine] are 2320 nM, 18 nM and 72 nM.
On to `COc1cn2ncc(-c3ccc(F)c(N[C@H]4CNC[C@@H]4F)n3)c2nc1C1CC1` [Compound 4, 6-(5-cyclopropyl-6-methoxypyrazolo[1,5-a]pyrimidin-3-yl)-3-fluoro-N-((3S,4S)-4-fluoropyrrolidin-3-yl)pyridin-2-amine], for which the IC50 is 4 nM against IRAK1 (Table 11); under 0.5 nM on FLT3 (Table 11); 0.9 nM against IRAK4 (Table 11); 36 nM in the test with MOLM14 D835Y cells (MOLM-14, Table 16, 48 h).
For `COc1cn2ncc(-c3nc(N[C@H]4CNC[C@@H]4F)ccc3F)c2nc1C1CC1` [Compound 1, 6-(5-cyclopropyl-6-methoxypyrazolo[1,5-a]pyrimidin-3-yl)-5-fluoro-N-((3S,4S)-4-fluoropyrrolidin-3-yl)pyridin-2-amine] the same measures were 0.9 nM, under 0.5 nM, under 0.5 nM and 9 nM.
Regarding `FC(F)COc1cnc2c(-c3cccc(N[C@H]4CNC[C@@H]4F)n3)cnn2c1` [Compound 16, 6-(6-(2,2-difluoroethoxy)pyrazolo[1,5-a]pyrimidin-3-yl)-N-((3S,4S)-4-fluoropyrrolidin-3-yl)pyridin-2-amine], the IC50 on IRAK1 (Table 11) was determined as 4300 nM; against FLT3 (Table 11) it was 4 nM; at IRAK4 (Table 11) it was 61 nM.
For `COc1cn2ncc(-c3nc(N[C@@H]4CCCNC4)c(C#N)cc3F)c2nc1C1CC1` [Compound 8, (R)-6-(5-cyclopropyl-6-methoxypyrazolo[1,5-a]pyrimidin-3-yl)-5-fluoro-2-(piperidin-3-ylamino)nicotinonitrile] the same measures were under 0.5 nM, under 0.5 nM and under 0.5 nM.
